{"source": "patent US5240962A", "about": "“Antiobesity and fat-reducing agents” (priority 1991, dated 1993)", "key": {"[1]": {"target": "T1, invertase (or β-fructofuranosidase; EC 3.2.1.26) (Saccharomyces cerevisiae, UniProt P00724)", "T1 construct": "purchased Sigma Chemical Company", "T1 sequence (P00724 20-532)": "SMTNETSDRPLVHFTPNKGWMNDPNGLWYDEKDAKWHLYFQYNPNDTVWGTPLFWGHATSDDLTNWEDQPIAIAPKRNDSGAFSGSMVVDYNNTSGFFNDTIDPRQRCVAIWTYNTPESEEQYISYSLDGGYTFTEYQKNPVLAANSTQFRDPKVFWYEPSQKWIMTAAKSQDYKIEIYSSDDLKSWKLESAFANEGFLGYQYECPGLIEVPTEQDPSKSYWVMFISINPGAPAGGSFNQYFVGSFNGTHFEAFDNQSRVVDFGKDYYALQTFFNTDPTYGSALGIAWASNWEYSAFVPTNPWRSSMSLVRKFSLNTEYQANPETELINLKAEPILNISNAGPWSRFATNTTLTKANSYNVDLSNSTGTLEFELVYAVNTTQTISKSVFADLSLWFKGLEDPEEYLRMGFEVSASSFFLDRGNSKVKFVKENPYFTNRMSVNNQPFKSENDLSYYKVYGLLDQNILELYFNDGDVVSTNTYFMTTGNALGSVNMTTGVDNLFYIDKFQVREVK", "assay": "Invertase inhibition", "format": "biochemical", "conditions": "200 μg/ml; pH 4.5, sucrose substrate; read-out: % Inhibition of invertase enzyme activity", "experimental": "The following phenols (compound numbers correspond to those designated in Example 1) were tested at a concentration of 200 μg/ml for their ability to inhibit invertase enzyme activity. The assay was conducted essentially according to the procedure of I. H. Segel, et al., as described in Biochemical Calculation, John Wiley Sons, New York, p. 287-290 (1976).\nThe invertase (or β-fructofuranosidase; EC 3.2.1.26) was purchased from Sigma Chemical Company. The enzyme solution (100 μg/ml, 0.1 ml), 0.2 M acetate buffer (pH 4.5, 0.2 ml), 0.5 M sucrose (0.2 ml), and a sample solution in water/DMSO (0.6 ml) were combined and incubated for 10 minutes at 37° C. After incubation, the hydrolysis was stopped by the addition of Nelson reagent. Liberated reduced sugar was measured at 500 nm by the method of Somogyi-Nelson [N. Nelson, et al., J. Biol. Chem., 153, 375 (1944)]."}, "[2]": {"target": "T2, α-glucosidase (EC3.2.1.20) (Saccharomyces cerevisiae, UniProt P53341)", "T2 construct": "purchased Sigma Chemical Company", "T2 sequence (P53341 whole entry)": "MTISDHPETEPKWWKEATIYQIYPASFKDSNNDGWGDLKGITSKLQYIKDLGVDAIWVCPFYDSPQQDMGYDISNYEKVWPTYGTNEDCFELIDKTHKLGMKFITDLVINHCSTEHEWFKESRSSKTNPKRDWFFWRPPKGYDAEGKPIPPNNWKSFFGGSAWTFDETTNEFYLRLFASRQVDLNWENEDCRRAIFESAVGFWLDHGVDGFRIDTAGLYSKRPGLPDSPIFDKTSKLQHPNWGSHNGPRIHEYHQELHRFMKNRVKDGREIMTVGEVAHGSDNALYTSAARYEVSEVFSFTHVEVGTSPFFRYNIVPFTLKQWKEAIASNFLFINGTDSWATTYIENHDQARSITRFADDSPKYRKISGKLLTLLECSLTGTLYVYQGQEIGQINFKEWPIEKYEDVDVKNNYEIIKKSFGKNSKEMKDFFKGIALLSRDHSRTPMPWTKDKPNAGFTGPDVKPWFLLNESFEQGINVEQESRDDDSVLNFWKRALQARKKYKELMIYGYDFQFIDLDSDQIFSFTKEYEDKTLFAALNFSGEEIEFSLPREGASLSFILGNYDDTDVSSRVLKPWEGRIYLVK", "assay": "α-Glucosidase inhibition", "format": "biochemical", "experimental": "The assay was conducted essentially according to the procedure of H. L. Lai, as described in Biochem. Biophys.\nThe α-glucosidase (EC3.2.1.20) was purchased from Sigma Chemical Company. The enzyme solution (100 μg/ml, 0.1 ml), 0.1 M phosphate buffer (pH 6.8, 2.55 ml), 10 mM nitrophenyl glucoside (0.1 ml), and a sample solution in DMSO (0.15 ml) were combined and incubated for 10 minutes at 37° C. After incubation, the hydrolysis was stopped by the addition of 1 ml of 16(w/v)% of sodium carbonate. Liberated p-nitrophenol was measured at 400 nm."}, "[3]": {"assay": "Toxicity in mice over 4 weeks", "format": "in vivo", "conditions": "300 mg/kg dose, over a period of 4 weeks", "description": "This finding, combined with in vitro enzyme inhibiting activities, provides evidence that the naturally occurring phenols of the formula (I) have unexpected utility in treating obesity in a mammalian subject."}, "[4]": {"assay": "Effect on body fat in rats on carbohydrate enriched diet", "format": "in vivo, Sprague-Dawley rats", "conditions": "for Epididymal Fat Weight / Final Body Weight / Inguinal Fat Weight: male rats", "description": "Male Sprague-Dawley weanling rats (Bioresearch Services, Oriental Yeast Co. Ltd.) of three weeks old were used in this study. They were allotted to two treatment groups of five rats when they weighed an average of about 65 g. The animals were fed carbohydrate enriched diets ad libitum for a period of 31 days.\nControl rate received the above diet. Two groups received different levels of compound 1 (Example 1), 0.1% and 0.2%, respectively. At the conclusion of the test, all animals were sacrificed. Inguinal fat, epididymal fat, liver, kidney, spleen, lung, heart, thymus gland, brown adipose tissue and pectoral muscle were excised and weighted."}, "[5]": {"assay": "Effect on fat content of broiler chickens", "format": "in vivo", "conditions": "27 days; for Fat Weight / Final Body Weight: broilers", "experimental": "Four groups of 5 seven-day old broiler having an average weight of 129 g were used. A test diet was available ad libitum to all birds during the test period (27 days).\nControl birds received no test compound. […] At the conclusion of the test, all birds were sacrificed and processed to determine fat weights and body weights. Feed intake was also recorded."}, "[6]": {"assay": "Effect on body weight of slightly obese mice, drug-food mixture", "format": "in vivo, mice (ICR)", "conditions": "for Body weight change compared with control group (in words): 4 weeks; for Body weight gain, Week Four / Body weight gain, Week One / Body weight gain, Week Three / Body weight gain, Week Two: ad libitum, female ICR mice", "experimental": "Slightly obese female mice (ICR) having an average weight of 20-25 g were used in these studies. Compound 1 (Example 1; anacardic acid) was administered as a drug-food mixture. Normal mouse chow was powdered and the drug added to achieve a final concentration of 1 mg (low dose), 3 mg (intermediate dose), and 10 mg (high dose) per 100 g of food. The powdered chow was then repelleted into its usual form. Control chow was similarly prepared without addition of drug. Four groups of ten animals were assigned to receive normal chow (controls) or the drug in the low dose, in the intermediate dose or in the high dose. The animals were fed ad libitum over a 4-week period."}, "[7]": {"conditions": "10 minutes at 37° C., pH 6.8, nitrophenyl glucoside substrate"}, "[8]": {"conditions": "High dose, 10 mg per 100 g of food"}, "[9]": {"conditions": "Intermediate dose, 3 mg per 100 g of food"}, "[10]": {"conditions": "Low dose, 1 mg per 100 g of food"}}, "note": "Like-named read-outs stand apart in the source and are kept apart here."}
{"compound": "C=CC/C=C\\C/C=C\\CCCCCCCc1cccc(O)c1C(=O)O", "note": "[Compound 4, 6-[8(z), 11(z), 14pentadecatrienyl] salicylic acid]", "values": [{"measurement": "inhibition at 200 µg/mL", "setting": "[1]", "value": 73, "unit": "%"}, {"measurement": "IC50", "setting": "[2]; [7]", "value": 0.876, "unit": "µM"}]}
{"compound": "CCCCCC/C=C\\CCCCCCCc1cc(O)c(C)c(O)c1", "note": "[Compound 10, 2-methyl-5-[8(z)-pentadecenyl]resorcinol]", "values": [{"measurement": "IC50", "setting": "[2]; [7]", "value": 165, "unit": "µM"}]}
{"compound": "CCCCCCCCCCCCCCCc1cccc(O)c1", "note": "[Compound 5, 3 - Pentadecylphenol]", "values": [{"measurement": "IC50", "setting": "[2]; [7]", "value": 483, "unit": "µM"}]}
{"compound": "CCC/C=C\\C/C=C\\CCCCCCCc1cccc(O)c1C(=O)O", "note": "[Compound 3, 6-[8(z), 11(z)-pentadecadienyl] salicylic acid]", "values": [{"measurement": "IC50", "setting": "[2]; [7]", "value": 3.77, "unit": "µM"}]}
{"compound": "C=CC/C=C\\C/C=C\\CCCCCCCc1cc(O)cc(O)c1", "note": "[Compound 16, 5-[8(z), 11(z), 14-pentadecatrienyl]resorcinol]", "values": [{"measurement": "inhibition at 200 µg/mL", "setting": "[1]", "value": 32, "unit": "%"}, {"measurement": "IC50", "setting": "[2]", "value": 44.5, "unit": "µM"}]}
{"compound": "CCC/C=C\\C/C=C\\CCCCCCCc1cc(O)c(C)c(O)c1", "note": "[Compound 11, 2-methyl-5-[8(z), 11(z)-pentadecadienyl] resorcinol]", "values": [{"measurement": "IC50", "setting": "[2]; [7]", "value": 151, "unit": "µM"}]}
{"compound": "CCCCCCCCCCCCCCCc1cc(O)c(C)c(O)c1", "note": "[Compound 9, 2-Methyl-5-pentadecylresorcinol]", "values": [{"measurement": "IC50", "setting": "[2]; [7]", "value": 38.9, "unit": "µM"}]}
{"compound": "CCCCCCCCCCCCCCCc1cc(O)cc(O)c1", "note": "[Compound 13, 5-Pentadecylresorcinol]", "values": [{"measurement": "IC50", "setting": "[2]; [7]", "value": 268, "unit": "µM"}]}
{"compound": "CCCCCCCCCCCCCCCc1cccc(O)c1C(=O)O", "note": "[Compound 1, 6 - Pentadecylsalicylic Acid]", "values": [{"measurement": "Toxicity", "setting": "[3]", "value": "no toxicity"}, {"measurement": "Epididymal Fat Weight", "setting": "[4]; 0.1% in diet, 31 days", "value": 3.2, "unit": "g"}, {"measurement": "Final Body Weight", "setting": "[4]; 0.1% in diet, 31 days", "value": 301.6, "unit": "g"}, {"measurement": "Inguinal Fat Weight", "setting": "[4]; 0.1% in diet, 31 days", "value": 7.1, "unit": "g"}, {"measurement": "Epididymal Fat Weight", "setting": "[4]; 0.2% in diet, 31 days", "value": 3.7, "unit": "g"}, {"measurement": "Final Body Weight", "setting": "[4]; 0.2% in diet, 31 days", "value": 311.0, "unit": "g"}, {"measurement": "Inguinal Fat Weight", "setting": "[4]; 0.2% in diet, 31 days", "value": 7.5, "unit": "g"}, {"measurement": "Reduction in fat deposition", "setting": "[4]; anacardic acid in the animal diet, statement on Tables 4 and 7 (broilers and rats)", "value": "≥ 20", "unit": "%"}, {"measurement": "Loss of initial body weight", "setting": "[4]; rats receiving anacardic acid in diet, 31 days", "value": "less than 10%"}, {"measurement": "Fat Weight", "setting": "[5]; 0.1% in diet", "value": 12, "unit": "g"}, {"measurement": "Final Body Weight", "setting": "[5]; 0.1% in diet", "value": 110, "unit": "g"}, {"measurement": "Fat Weight", "setting": "[5]; 0.2% in diet", "value": 10, "unit": "g"}, {"measurement": "Final Body Weight", "setting": "[5]; 0.2% in diet", "value": 108, "unit": "g"}, {"measurement": "Loss of the initial body weight", "setting": "[5]; birds receiving anacardic acid in diet", "value": "approximately 10%"}, {"measurement": "Body weight change compared with control group (in words)", "setting": "[6]; [8]", "value": "gained less weight than mice in the control group"}, {"measurement": "Body weight gain, Week Four", "setting": "[6]; [8]", "value": "+4.75 g"}, {"measurement": "Body weight gain, Week One", "setting": "[6]; [8]", "value": "+0.31 g"}, {"measurement": "Body weight gain, Week Three", "setting": "[6]; [8]", "value": "+4.13 g"}, {"measurement": "Body weight gain, Week Two", "setting": "[6]; [8]", "value": "+1.88 g"}, {"measurement": "Body weight change compared with control group (in words)", "setting": "[6]; [9]", "value": "gained less weight than mice in the control group"}, {"measurement": "Body weight gain, Week Four", "setting": "[6]; [9]", "value": "+5.00 g"}, {"measurement": "Body weight gain, Week One", "setting": "[6]; [9]", "value": "+0.56 g"}, {"measurement": "Body weight gain, Week Three", "setting": "[6]; [9]", "value": "+4.5 g"}, {"measurement": "Body weight gain, Week Two", "setting": "[6]; [9]", "value": "+2.13 g"}, {"measurement": "Body weight change compared with control group (in words)", "setting": "[6]; [10]", "value": "no significant deviation in body weight from the control group"}, {"measurement": "Body weight gain, Week Four", "setting": "[6]; [10]", "value": "+5.13 g"}, {"measurement": "Body weight gain, Week One", "setting": "[6]; [10]", "value": "+0.63 g"}, {"measurement": "Body weight gain, Week Three", "setting": "[6]; [10]", "value": "+4.63 g"}, {"measurement": "Body weight gain, Week Two", "setting": "[6]; [10]", "value": "+2.19 g"}, {"measurement": "IC50", "setting": "[2]; [7]", "value": 7.17, "unit": "µM"}]}
{"compound": "C=CC/C=C\\C/C=C\\CCCCCCCc1cc(O)c(C)c(O)c1", "note": "[Compound 12, 2-methyl-5-[8(z), 11(z), 14-pentadecatrienyl]resorcinol]", "values": [{"measurement": "inhibition at 200 µg/mL", "setting": "[1]", "value": 79, "unit": "%"}, {"measurement": "IC50", "setting": "[2]; [7]", "value": 170, "unit": "µM"}]}
